Experimental data published in article PMC3652823 (PLoS ONE, 2013).
Read-outs that look alike come from different tables or passages of the source.

Columns and labels:
GI membrane = GI membrane toxicity by morphological observation; assay type: in vivo, rat; details: rats, oral, COS 25 mg/kg
Procedure: After in vivo pharmacokinetics experiments were carried out for 8 h, the GI was wash with HBSS (pH 7.4) and the segments were removed and immersed in the 4% neutral paraform aldehyde buffer and fixed. Vertical sections were prepared, stained with hematoxylin-eosin, and examined by light microscopy. To be able to describe possible changes in the structure of the tissue, tissues were studied and evaluated for morphological changes using the following parameters: Measurement of the distance between the nucleus and the apical membrane in enterocytes with a measuring-rod. Five measurements in each villus and five villi were measured in each slide. The villi were randomly chosen and measurements were all conducted at the tips of the villi. Villus index was used for duodenum, jejunum and ileum and crypt index for colon. Measurement of height (villi) or depth (crypt) and width (one-half of height or depth) was done with a measuring-rod of five villi/crypts in each slide that were randomly chosen. Height/depth was divided with width to receive the index.

[1] = design: method as in Gao et al. (2008) [16]; details: in situ loop method in rats; ref Gao et al. (2008) [16]; cited from earlier work
[2] = rat, in vivo, po; cited from earlier work
protein kinase C (PKCα) = target: protein kinase C (PKCα); design: method as in earlier work; details: read-out: IC50, inhibition of protein kinase C (PKCα); cited from earlier work
[3] = rat, in vivo, po, cited from earlier work
in vivo = details: male, SD, rat, po
Caco-2 cell monolayers = assay type: in vitro ADME, human
Procedure: Caco-2 cells were cultured in high glucose DMEM with 10% fetal bovine serum, 1% nonessential amino acids. Cells were cultured in a humidified atmosphere of 5% CO2 at 37°C. After reaching 80% confluens, Caco-2 cells were harvested with 0.05% trypsin-EDTA solution and seeded on top of CC inserts in 6-well plates, which has a surface area of 4.2 cm^2, at a density of 1.0×10^5 cells/cm^2. The protocols for cell culture in Transwell inserts were similar to those described previously.
Hank’s balanced salt solution (HBSS) was used as the transport buffer for the transport study in Caco-2 cell monolayer model. It was prepared by dissolving 9.5 grams of commercial available HBSS powder in 1000 mL water. The pH value of the buffer was adjusted to pH 6.0 by 85% of phosphoric acid.
Cell culture experiments were described previously. Briefly, after culture medium was aspirated, the cell monolayers were washed three times with blank HBSS. The transepithelial electrical resistance (TEER) values of cell monolayers were measured, which were more than […]. The monolayers were incubated with the blank HBSS for 1 h with 37°C. Thereafter the incubation medium was aspirated. […] The amounts of transported compound were measured as a function of time by UPLC-MS method described previously. […] At the end of the transport experiment, integrity of the monolayer was monitored by TEER value.

[4] = rat, in vivo, po
[5] = tested on: influenza virus strain, A/PR8/34(H1N1); experiment: Antiviral effect of serum after oral administration on influenza virus in MDCK cells (MTT); assay type: cell-based; details: COS 25 mg/kg, ribavirin 20 mg/kg, MTT after 48 h

## Triton X-100
GI membrane; duodenum, jejunum and ileum, Triton X-100 200 mg/kg, vs PBS group
  Nucleo-apical distance: remarkable decrease
GI membrane; duodenum, jejunum, ileum and colon, Triton X-100 200 mg/kg, vs PBS group
  villi/crypt index: remarkable decrease
GI membrane; Triton X-100 200 mg/kg as positive control
  morphology of the GI membrane (HE sections: stomach, jejunum, colon): could cause mucosal damage seriously

## N[C@H]1[C@H](O[C@H]2[C@H](O)[C@@H](N)[C@H](O[C@H]3[C@H](O)[C@@H](N)[C@H](O[C@H]4[C@H](O)[C@@H](N)[C@H](O[C@H]5[C@H](O)[C@@H](N)[C@H](O[C@H]6[C@H](O)[C@@H](N)C(O)O[C@@H]6CO)O[C@@H]5CO)O[C@@H]4CO)O[C@@H]3CO)O[C@@H]2CO)O[C@H](CO)[C@@H](O)[C@@H]1O (some centres unmarked) [chitosan hexamer]
[1]
  increase of the bioavailability of insulin and FDs: about 2.5 times

## C[C@@H]1O[C@@H](OC[C@H]2O[C@@H](OCCc3ccc(O)c(O)c3)[C@H](O)[C@@H](O)[C@@H]2OC(=O)/C=C/c2ccc(O)c(O)c2)[C@H](O)[C@H](O)[C@H]1O [FTA, forsythoside A]
[2]
  T 1/2λz: 6.72 h
  T max: 0.75 h
  absolute bioavailability orally: ~0.72%
Protein kinase C (PKCα)
  IC50: 1900 nM
[3]; 100 mg/kg
  T 1/2λz: 1.24 h
In vivo
  AUC(0-t): 28.5 ng·h/mL

## Chito-oligosaccharide [COS]
Caco-2 cell monolayers
  effect on the P app-value for FTA and CHA compared to the control group: significant, concentration-dependent increase
[4]; 12.5 mg/kg
  CHA AUC0-480 min: 52938.0±3520.0 ng⋅min/mL
  FTA AUC0-480 min: 2874.7±564.9 ng⋅min/mL
[4]; 25 mg/kg
  CHA AUC0-480 min: 296980.0±36456.0 ng⋅min/mL
  FTA AUC0-480 min: 6286.0±1329.7 ng⋅min/mL
[4]; 50 mg/kg
  CHA AUC0-480 min: 152641.5±72581.0 ng⋅min/mL
  FTA AUC0-480 min: 3143.0±572.1 ng⋅min/mL

## NC(=O)c1ncn([C@@H]2O[C@H](CO)[C@@H](O)[C@H]2O)n1 [ribavirin]
[5]
  inhibition rate on influenza virus compared with PBS group: remarkable increase

## O=C(/C=C/c1ccc(O)c(O)c1)O[C@@H]1C[C@](O)(C(=O)O)C[C@@H](O)[C@H]1O [CHA, Chlorogenic acid]
[2]
  T 1/2λz: 3.63 h
  T max: 0.75 h
  absolute bioavailability orally: about 0.69%
[3]; 60 mg/kg
  T 1/2z: 1.05 h
In vivo
  AUC(0-t): 144 ng·h/mL
